Laboratory results: patent publication US8853437B2, “Anti-inflammatory compounds” (The University of Tokyo, priority 2009, dated 2014)

Key:
[1] = test system: infiltration of neutrophil; assay: zymosan peritonitis model; assay type: in vivo, mouse C57BL/6J; conditions: for suppressing effect for other cell group (macrophage etc.): 10 ng (FIG. 4C); for neutrophil suppressing activity compared with dexamethasone: 10 ng compound versus 10 μg dexamethasone (FIG. 4A, 4C); for dose dependence of activity in peritonitis model: Example 4, 1 ng or 10 ng/mouse (FIG. 4A(b), 4D); for activities of suppressing infiltration of neutrophil at an inflammation initial stage: low dose of 10 ng (FIG. 4C)
Description: For an inflammation model, zymosan peritonitis elicited by intraperitoneally administering zymosan being a cell wall component of yeast was used. Since an exudate in an abdominal cavity can be recovered, the present model is a model suitable for analyzing cytokines and eicosanoids.
Zymosan A (Wako Pure Chemical Industries, Ltd.) was suspended in a physiological saline to 1 mg/mL, and the suspension was warmed at 37° C. for 30 minutes. Thereafter, this zymosan A solution was vortexed, and returned to room temperature. The compound synthesized in the previous Example, 17,18-diHEPE was taken into a 1.5 mL tube, and a solvent was vaporized with nitrogen to complete dryness and, thereafter, a physiological saline was added to dissolve it. Then, 100 μL of this compound solution was injected (1 ng or 10 ng/mouse) through a tail vein of C57BL/6J mouse (7 weeks old, mail: CLEA Japan, Inc.). As a control, a group in which only a physiological saline was injected, and a group in which dexamethasone (10 μg/mouse) being an anti-inflammatory steroid was injected, were used. After about 2 minutes, 1 mL of a zymosan A solution was intraperitoneally administered. After 2 hours, cells exuded into an abdominal cavity were recovered into a tube with a PBS, and the cell number was counted. Thereafter, this tube was centrifuged at 1200 rpm and 4° C. for 5 minutes to remove the supernatant, a precipitate (pellet) was suspended in PBS, and a population was analyzed by three-color staining of FACS.
Abdominal cavity cells were adjusted to 2.5×10^6 cells/mL, and 200 μL was placed into a 5 mL round-bottom tube (BDFalcon) (5×10^5 cells/tube). To this tube was added an anti-mouse CD16/CD32 antibody (0.5 mg/mL; BDBiosciences) at 1 μL per tube, and this was incubated at room temperature for 10 minutes. To this tube was added a staining antibody mix (prepared by diluting 1.0 μL of FITC bound anti-mouse F4/80 antibody (0.5 mg/mL; eBiosciences), 0.5 μL of PE bound anti-mouse Ly-6G & Ly-6C antibody (0.2 mg/mL; eBiosciences) and 0.5 μL of PerCP-Cy5.5 bound anti-mouse CD11b antibody (0.2 mg/mL; eBiosciences) in 50 μL of PBS, per sample) at 50 μL/tube, and this was incubated at room temperature for 15 minutes under light shielding. Measurement was performed by FACS Calibur (BDBiosciences). […]

[2] = test system: neutrophil which have infiltrated into lung; assay: acute lung damage model (intrabronchial hydrochloric acid); assay type: in vivo, mouse C57BL/6J; conditions: 10 ng via tail vein; BAL 12 hours after hydrochloric acid (FIG. 4E)
Description: One hundred μL of a compound 17,18-diHEPE dissolved in a physiological saline was injected through a tail vein of a C57BL/6J mouse (7 weeks old, male; CLEA Japan, Inc.). After 15 minutes, this mouse was anesthetized by intraperitoneally administering a mixed solution of ketamine (Daiichi Sankyo Propharma) and xylazine (Bayer Medical Ltd.), a trachea was exposed, and 25 μL of hydrochloric acid (pH 1.0, 0.1 N; SIGMA) was administered into a left bronchium. As a control, a group in which only a physiological saline was injected and, after anesthesia, hydrochloric acid was administered into a left bronchium (saline/HCl), and a non-treated group (intact) were used. After 12 hours, this mouse was slaughtered, and bronchial alveolus washing (BAL) was performed with 0.7 mL of PBS two times. The cell number in the BAL solution was counted and a population of cells was quantitated by simple Giemsa staining using a simple Giemsa staining solution Diffquick (Sysmex Corporation).

## CCC(O)C(O)/C=C/C=C/C=C\C/C=C\C/C=C\CCCC(=O)O (centres unmarked) [17,18-diHEPE, 17,18-dihydroxyeicosapentaenoic acid]
[1]; 10 ng/mouse via tail vein, abdominal cavity cells recovered 2 hours after zymosan, FACS (FIG. 4A)
  suppression of infiltration of neutrophil: about 40%
[1]; calculated from graph FIG. 4F
  IC40 (dose versus decrease in the neutrophil number): approximately 8 ng

## CCC(O)C(O)/C=C/C=C/C=C\C/C=C\C/C=C\CCCC(=O)O (single isomer, unassigned) [peak 6, 17,18-diHEPE]
[1]
  suppressing effect for other cell group (macrophage etc.): not recognized
  neutrophil suppressing activity compared with dexamethasone: equivalent to 10 μg of dexamethasone
  dose dependence of activity in peritonitis model: dose-dependent
  activities of suppressing infiltration of neutrophil at an inflammation initial stage: recognized
[2]
  neutrophil-specific infiltration suppressing activity: recognized

## CCC(O)C(O)/C=C/C=C/C=C\C/C=C\C/C=C\CCCC(=O)O (single isomer, unassigned) [peak 5, 17,18-diHEPE]
[1]
  suppressing effect for other cell group (macrophage etc.): not recognized
  neutrophil suppressing activity compared with dexamethasone: equivalent to 10 μg of dexamethasone
  dose dependence of activity in peritonitis model: dose-dependent
  activities of suppressing infiltration of neutrophil at an inflammation initial stage: recognized
